Reference: patent publication US20060019312A1, “CIS-interactions between MHC molecules and co-expressed proteins, related neurological and non-neurological disorders and related therapeutic/diagnostic utilities” (priority 2004, published 2006)

Test system: GluR1 / MHC class I (b2m)
Assay: Co-immunoprecipitation of GluR1 with anti-b2m antibodies from brain slices, Western blot with anti-GluR1
Type: cell-based, mouse
Conditions: NMDA 40 micromolar in ACSF, 3 minutes, 30 min wash
Method: FIG. 6 is a representation of a Western blot which illustrates that the NMDA-dependent Glutamate receptor co-immunoprecipitates with an MHC Class I molecule; 400-micron-thick slices of adult mouse brain (wild type or b2m-/-TAP-/- [MHC class I-deficient]) were cut and allowed to recover in oxygenated (95% O2, 5% CO2) artifical cerebro-spinal fluid (ACSF) for 1 hour at room temperature; a subset of slices were then transferred to a recording chamber and allowed to recover for 40 min in flowing oxygenated ACSF (2 ml/minute); these slices were treated with NMDA (40 micromolar in ACSF, 3 minutes) and then washed for 30 min in oxygenated ACSF; at this time, all slices (treated and untreated) were homogenized as below and processed for immunoprecipitation with antibodies against b2m, IgG, or GluR1, and the resulting precipitates were probed in Western blots with antibodies against GluR1.
Hippocampal slice (400 um) samples were prepared by homogenizing tissue in NP40 Lysis buffer (50 mM Tris, 150 mM NaCl, 1 mM EDTA, 1% NP40, pH 7.6) with protease inhibitors (1 ug/mL aprotinin, 1 ug/mL leupeptin, 1 ug/mL pepstatin, 1 mM Na orthovanadate, 1 mM PMSF, phosphatase inhibitor cocktail sigma, 1:100). After letting the tissue sit on ice for 15 min., samples were centrifuged at 13,000 rpm, 4°, for 10 min. […]

SMILES: CN[C@H](CC(=O)O)C(=O)O [NMDA]
- co-immunoprecipitation of GluR1 with anti-b2m antibodies (MHC-deficient (b2m-/- TAP-/-; KO) adult mouse brain slices): fails to induce coimmunoprecipitation of GluR1
- co-immunoprecipitation of GluR1 with antibodies against the light chain of MHC class I (b2m) (WT adult mouse brain slices): co-precipitates GluR1 only after NMDA treatment
